Data published in patent US9113629B2, “4-amino-6-(4-substituted-phenyl)-picolinates and 6-amino-2-(4-substituted-phenyl)-pyrimidine-4-carboxylates and their use as herbicides” (DOW AGROSCIENCES LLC, priority 2013, dated 2015).
Like-named read-outs stand apart in the source and are kept apart here.

Assays:
[1] = tested on: Key Broadleaf Weed and Crop Species; assay: Post-emergent Test II herbicidal activity (Table 5); assay type: in vivo; details: post-emergence, 336 h, post-emergent, 14 days after application; for pest or weed control at 70 g/ha: 70 g ai/ha; for pest or weed control at 140 g/ha: 140 g ai/ha
Method in brief: (§1)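 Foliar application at 187 L/ha to greenhouse-grown seedlings (first or second true leaf); subirrigation thereafter. Visual 0–100% injury at 14 d relative to untreated plants.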

[2] = tested on: Key Grass and Sedge Weeds as well as Grass Crops; assay: Post-emergent Test II herbicidal activity (Table 6); assay type: in vivo; details: post-emergence, 336 h; for pest or weed control at 70 g/ha: application rate 70 g ai/ha; for pest or weed control at 140 g/ha: application rate 140 g ai/ha
Method in brief: as §1

[3] = ABUTH: velvetleaf (Abutilon theophrasti), read-out: Visual Growth Reduction (%) 14 Days After Application ABUTH
[4] = AMARE: redroot pigweed (Amaranthus retroflexus), read-out: Visual Growth Reduction (%) 14 Days After Application AMARE
[5] = BRSNN: oilseed-rape, canola (Brassica napus), read-out: Visual Growth Reduction (%) 14 Days After Application BRSNN
[6] = CHEAL: lambsquarters (Chenopodium album), read-out: Visual Growth Reduction (%) 14 Days After Application CHEAL
[7] = EPHHL: wild poinsettia (Euphorbia heterophylla), read-out: Visual Growth Reduction (%) 14 Days After Application EPHHL
[8] = HELAN: sunflower (Helianthus annuus), read-out: Visual Growth Reduction (%) 14 Days After Application HELAN
[9] = VIOTR: wild pansy (Viola tricolor), read-out: Visual Growth Reduction (%) 14 Days After Application VIOTR
[10] = Triticum aestivum, TRZSS (wheat), read-out: Visual Growth Reduction (%) 14 Days After Application, TRZSS
[11] = CYPES: yellow nutsedge (Cyperus esculentus), read-out: Visual Growth Reduction (%) 14 Days After Application, CYPES
[12] = DIGSA: crabgrass (Digitaria sanguinalis), read-out: Visual Growth Reduction (%) 14 Days After Application, DIGSA
[13] = ECHCG: barnyardgrass (Echinochloa crus-galli), read-out: Visual Growth Reduction (%) 14 Days After Application, ECHCG
[14] = ORYSA: rice (Oryza sativa), read-out: Visual Growth Reduction (%) 14 Days After Application, ORYSA
[15] = SETFA: giant foxtail (Setaria faberi), read-out: Visual Growth Reduction (%) 14 Days After Application, SETFA
[16] = SORVU: grain sorghum (Sorghum vulgare), read-out: Visual Growth Reduction (%) 14 Days After Application, SORVU
[17] = ZEAMX: maize, corn (Zea mays), read-out: Visual Growth Reduction (%) 14 Days After Application, ZEAMX

Cc1c(-c2ccc(I)cc2)nc(C(=O)O)c(Cl)c1N [Compound 116, 4-Amino-3-chloro-6-(4-iodophenyl)-5-methylpicolinic acid]
pest or weed control at 70 g/ha [1, 3]: 95 to 100% | pest or weed control at 140 g/ha [1, 3]: 95 to 100% | pest or weed control at 70 g/ha [1, 4]: 75 to 84% | pest or weed control at 140 g/ha [1, 4]: 85 to 94% | pest or weed control at 70 g/ha [1, 5]: 85 to 94% | pest or weed control at 140 g/ha [1, 5]: 95 to 100% | pest or weed control at 70 g/ha [1, 6]: 85 to 94% | pest or weed control at 140 g/ha [1, 6]: 85 to 94% | pest or weed control at 70 g/ha [1, 7]: 0 to 29% | pest or weed control at 140 g/ha [1, 7]: 0 to 29% | pest or weed control at 70 g/ha [1, 8]: 95 to 100% | pest or weed control at 140 g/ha [1, 8]: 95 to 100% | pest or weed control at 70 g/ha [1, 9]: 0 to 29% | pest or weed control at 140 g/ha [1, 9]: 0 to 29% | pest or weed control at 70 g/ha [2, 10]: 45 to 59% | pest or weed control at 140 g/ha [2, 10]: 45 to 59% | pest or weed control at 70 g/ha [2, 11]: 0 to 29% | pest or weed control at 140 g/ha [2, 11]: 0 to 29% | pest or weed control at 70 g/ha [2, 12]: 45 to 59% | pest or weed control at 140 g/ha [2, 12]: 60 to 74% | pest or weed control at 70 g/ha [2, 13]: 45 to 59% | pest or weed control at 140 g/ha [2, 13]: 60 to 74% | pest or weed control at 70 g/ha [2, 14]: 0 to 29% | pest or weed control at 140 g/ha [2, 14]: 0 to 29% | pest or weed control at 70 g/ha [2, 15]: 45 to 59% | pest or weed control at 140 g/ha [2, 15]: 60 to 74% | pest or weed control at 70 g/ha [2, 16]: 30 to 44% | pest or weed control at 140 g/ha [2, 16]: 45 to 59% | pest or weed control at 70 g/ha [2, 17]: 45 to 59% | pest or weed control at 140 g/ha [2, 17]: 60 to 74%

C=Cc1c(C(=O)O)nc(-c2ccc(Br)cc2)c(F)c1N [Compound 117]
pest or weed control at 70 g/ha [1, 3]: 95 to 100% | pest or weed control at 140 g/ha [1, 3]: 95 to 100% | pest or weed control at 70 g/ha [1, 4]: 95 to 100% | pest or weed control at 140 g/ha [1, 4]: 95 to 100% | pest or weed control at 70 g/ha [1, 5]: 75 to 84% | pest or weed control at 140 g/ha [1, 5]: 75 to 84% | pest or weed control at 70 g/ha [1, 6]: 95 to 100% | pest or weed control at 140 g/ha [1, 6]: 95 to 100% | pest or weed control at 70 g/ha [1, 7]: 95 to 100% | pest or weed control at 140 g/ha [1, 7]: 95 to 100% | pest or weed control at 70 g/ha [1, 8]: 85 to 94% | pest or weed control at 140 g/ha [1, 8]: 85 to 94% | pest or weed control at 70 g/ha [1, 9]: 0 to 29% | pest or weed control at 140 g/ha [1, 9]: 0 to 29% | pest or weed control at 70 g/ha [2, 10]: 0 to 29% | pest or weed control at 140 g/ha [2, 10]: 0 to 29% | pest or weed control at 70 g/ha [2, 11]: 95 to 100% | pest or weed control at 140 g/ha [2, 11]: 95 to 100% | pest or weed control at 70 g/ha [2, 12]: 0 to 29% | pest or weed control at 140 g/ha [2, 12]: 0 to 29% | pest or weed control at 70 g/ha [2, 13]: 75 to 84% | pest or weed control at 140 g/ha [2, 13]: 75 to 84% | pest or weed control at 70 g/ha [2, 14]: 45 to 59% | pest or weed control at 140 g/ha [2, 14]: 45 to 59% | pest or weed control at 70 g/ha [2, 15]: 0 to 29% | pest or weed control at 140 g/ha [2, 15]: 45 to 59% | pest or weed control at 70 g/ha [2, 16]: 85 to 94% | pest or weed control at 140 g/ha [2, 16]: 85 to 94% | pest or weed control at 70 g/ha [2, 17]: 45 to 59% | pest or weed control at 140 g/ha [2, 17]: 60 to 74%
